Test results published in patent publication US12714677B2, “Dual chamber syringe for administering a hormone encapsulated by a hydrogel” (VITALTE LIFESCIENCES INC., priority 2024, dated 2026).

How the values were obtained:
[1] = Release assay on E2 microspheres (same manner as discs); type: physicochemical; conditions: day 3
Protocol: Release assays on the E2 microspheres were conducted in the same manner as described above for the discs.
(§1) Low standards were removed from the analysis.

[2] = E2 release from hydrogel discs, E2 pellets and E2 powder into incubation medium (ELISA); type: physicochemical; conditions: 50 mL incubation medium, 37° C., 6 rpm
Source text: as §1

[3] = cited from earlier work

Question: With `C[C@]12CC[C@@H]3c4ccc(O)cc4CC[C@H]3[C@@H]1CC[C@@H]2O` [E2 powder, Beta-estradiol] as the compound, how does the E2 release level [1] read?
Answer: approximates the saturation level of E2 in the incubation medium

Question: And the “E2 released into incubation media (concentration)” value ([2]; day 1 / 24 hours)?
Answer: about 1.85 mg/L

Question: What about the “E2 released into incubation media (concentration)” value ([2]; day 2 / 48 hours) of the same compound?
Answer: reached the saturation point of the incubation media

Question: And the “E2 released into incubation media (accumulated concentration)” value ([2]; day 3 / 72 hours)?
Answer: maintained the saturation point concentration

Question: Which “solubility factor in water compared to E2” value [3] does the source give for `C[C@]12CC[C@H]3[C@@H](CCC4=CC(=O)CC[C@@]43C)[C@@H]1CC[C@@H]2O` [T, Testosterone] here?
Answer: much higher
